Experimental data taken from US5885972A, “L-pyranosyl nucleosides” (Genencor International, Inc., priority 1996, dated 1999).
≈ marks a conversion by molar mass, not a printed value. Where two headings read alike, the source gives them in different places.

How the values were obtained:
[1] = In vitro survival of control bone marrow cells exposed to compound (Table I); type: cell-based; details: human, 10 μg/ml
Excerpt: (§1) In vitro activity against certain human tumor cell lines. CELL LINES: Eight different established human cell lines (CALU (lung), COLO320 (colon), H578St (breast), HT-29 (colon), MCF-7 (breast), OM-1 (colon), SKLU (lung), and SKMES (lung) and two control cell lines (bone marrow cell lines and/or fibroblasts) were utilized. All cell lines were obtained from the Tumor Cloning Laboratory, Institute for Drug Development, Cancer Therapy and Research Center, San Antonio, Tex. All cell lines grew as monolayers in the appropriate culture medium supplemented with heat-inactivated calf serum. All reagents were obtained from Grand Island Biological Co., Grand Island, N.Y.
IN VITRO EXPOSURE OF TUMOR CELLS TO COMPOUNDS: Stock solutions of intravenous (iv) formulations of certain of the compounds of the present invention (as shown in Table I below), as well as intravenous formulations of 5-FU (control) were used. The iv formulations of the compounds of the present invention were prepared with sterile buffered saline and stored at -70° C. until required for testing.
(§2) Following trypsinization, tumor cells were suspended in tissue culture medium and exposed to the antitumor agents continuously at three different concentrations: 10, 1 and 0.1 μg/ml.
RADIOMETRIC MEASUREMENT OF GROWTH INHIBITION: Growth inhibition was assessed with the BACTEC System 460 (Johnston Laboratories, Towson, Md.) after addition of the antitumor agent to the cells in the respective growth medium containing ^14 C-glucose at a final concentration of 2 μCi/ml. (See generally, C. Arteaga, et al., A Radiometric Method for Evaluation of Chemotherapy Sensitivity: Results of Screening a Panel of Human Breast Cancer Cell Lines, Cancer Research, 47, 6248-6253, (1987).)
(§3) Two mls of the tumor cell suspension containing radioactive glucose were seeded into sterile, disposable 15 ml vials by injection through self-sealing rubber-aluminum caps. […] The seeded vials were then incubated at 37° C. Measurement of the release of ^14 CO2 resulting from the metabolism of ^14 C-glucose were performed on days 6, 9, 12, and 15 in the BACTEC instrument. This instrument flushes the ^14 CO2 containing air out of the vials into an ionization chamber that converts dpm to growth index values. Chemotherapy sensitivity was calculated by comparing the growth index values of drug-treated vials to that observed in control vials. Each data point represents triplicate values.
(§4) All compounds were compared on an equimilimolar level.
The data presented in Table I are compared to results achieved with 5-FU as the control. All compounds were dosed on an equimilimolar basis. Inhibitory concentration (IC 50) is defined as the concentration required to kill 50% of the untreated cancer cells. Although the IC 50 of certain of the compounds listed in Table I may be higher than that for 5-FU (the control), the compounds of the present invention are generally less toxic to normal cells such as bone marrow or fibroblasts. […] Additionally, because of their lower toxicity to normal cells, it is anticipated that the present compounds may be dosed at a higher rate to selectively increase toxicity to the cancer cells. In this regard, a therapeutic ratio for a given compound is typically determined by the following calculation. [formula] A therapeutic ratio of <80% is considered active. In Vivo Evaluation

HT-29 = experiment: In vitro radiometric (BACTEC) growth inhibition of human tumor cell line HT-29 (colon); type: cell-based; details: for viability at 10 µg/mL: 10 μg/ml
Excerpt: as §1
(§5) The iv formulations of the compounds of the present invention were prepared with sterile buffered saline and stored at -70° C. until required for testing.
as §2
(§6) RADIOMETRIC MEASUREMENT OF GROWTH INHIBITION: Growth inhibition was assessed with the BACTEC System 460 (Johnston Laboratories, Towson, Md.) after addition of the antitumor agent to the cells in the respective growth medium containing ^14 C-glucose at a final concentration of 2 μCi/ml.
as §3, with “Chemotherapy sensitivity was calculated by comparing the growth index values of drug-treated vials to that observed in control vials.” left out
as §4
(§7) All compounds were dosed on an equimilimolar basis. […] [formula] A therapeutic ratio of <80% is considered active. In Vivo Evaluation

CALU = experiment: In vitro radiometric (BACTEC) growth inhibition of human tumor cell line CALU (lung); type: cell-based
Excerpt: as §1, with “N.Y. […]” for “N.Y.”
(§8) RADIOMETRIC MEASUREMENT OF GROWTH INHIBITION: Growth inhibition was assessed with the BACTEC System 460 (Johnston Laboratories, Towson, Md.) after addition of the antitumor agent to the cells in the respective growth medium containing ^14 C-glucose at a final concentration of 2 μCi/ml. […]
(§9) Two mls of the tumor cell suspension containing radioactive glucose were seeded into sterile, disposable 15 ml vials by injection through self-sealing rubber-aluminum caps. […] Chemotherapy sensitivity was calculated by comparing the growth index values of drug-treated vials to that observed in control vials. […]

SKMES = experiment: In vitro radiometric (BACTEC) growth inhibition of human tumor cell line SKMES (lung); type: cell-based
Excerpt: as §1, §5, §2, §6
as §3, with “Chemotherapy sensitivity was calculated by comparing the growth index values of drug-treated vials to that observed in control vials.” left out
as §4, §7

SKLU = experiment: In vitro radiometric (BACTEC) growth inhibition of human tumor cell line SKLU (lung); type: cell-based; details: for viability at 10 µg/mL: 10 μg/ml
Excerpt: as §1, §5, §2, §6
as §3, with “Chemotherapy sensitivity was calculated by comparing the growth index values of drug-treated vials to that observed in control vials.” left out
as §4, §7

COLO320 = experiment: In vitro radiometric (BACTEC) growth inhibition of human tumor cell line COLO320 (colon); type: cell-based
Excerpt: as §1, with “N.Y. […]” for “N.Y.”
as §8, §9

OM-1 = experiment: In vitro radiometric (BACTEC) growth inhibition of human tumor cell line OM-1 (colon); type: cell-based; details: for viability at 10 µg/mL: OM-1, 10 μg/ml
Excerpt: as §1, §5, §2, §6
as §3, with “Chemotherapy sensitivity was calculated by comparing the growth index values of drug-treated vials to that observed in control vials.” left out
as §4, §7

HS578T [2] = experiment: In vitro radiometric (BACTEC) growth inhibition of human tumor cell line HS578T (breast); type: cell-based; details: Hs-578T; for viability at 10 µg/mL: 10 μg/ml, read-out: % survival tumor
Excerpt: as §1, §5, §2, §6
as §3, with “Chemotherapy sensitivity was calculated by comparing the growth index values of drug-treated vials to that observed in control vials.” left out
as §4, §7

MCF-7 = experiment: In vitro radiometric (BACTEC) growth inhibition of human tumor cell line MCF-7 (breast); type: cell-based; details: for viability at 10 µg/mL: MCF7, MCF-7, 10 μg/ml
Excerpt: as §1, §5, §2, §6
as §3, with “Chemotherapy sensitivity was calculated by comparing the growth index values of drug-treated vials to that observed in control vials.” left out
as §4, §7

HS578T [3] = experiment: In vitro radiometric (BACTEC) growth inhibition of human tumor cell line HS578T (breast); type: cell-based; details: Hs-578T, 6 μg/ml, read-out: % survival tumor
[4] = background statement on marketed drug; cited from earlier work
[5] = continuous exposure, read-out: IC 50
[6] = 6 μg/ml, read-out: % survival tumor
[7] = OM-1, continuous exposure, read-out: IC 50
[8] = HS578T, continuous exposure, read-out: IC 50
[9] = MCF7, MCF-7, continuous exposure, read-out: IC 50
[10] = SKLU, read-out: % survival tumor
[11] = SKLU, continuous exposure, read-out: IC 50

SMILES: Nc1nc2c(ncn2[C@H]2OC[C@H](O)[C@H](O)[C@@H]2O)c(=O)[nH]1 [(14), β-L-ribopyranosylguanine]
- viability [1]: 106%
- viability at 10 µg/mL (HT-29; read-out: % survival tumor): 94.8%
- IC50 (HT-29; [5]): > 10 µg/mL

SMILES: O=c1[nH]cc(F)c(=O)[nH]1 [Compound 5-FU, 5-fluorouracil, reference compound]
- viability at 6 µg/mL (CALU; [6]): 9.9%
- IC50 (CALU; continuous exposure): < 0.6 µg/mL
- IC50 (SKMES): < 0.6 µg/mL
- viability at 6 µg/mL (SKMES; SKMES, 6 μg/ml, read-out: % survival tumor): 29.1%
- IC50 (SKLU): 1.05 µg/mL (≈ 8.07 µM)
- viability at 6 µg/mL (SKLU; SKLU, 6 μg/ml, read-out: % survival tumor): 24.7%
- viability at 6 µg/mL (COLO320; COLO 320, 6 μg/ml, read-out: % survival tumor): 1%
- IC50 (COLO320; COLO 320, continuous exposure): < 0.6 µg/mL
- IC50 (HT-29): 0.61 µg/mL (≈ 4.69 µM)
- viability at 6 µg/mL (HT-29; [6]): 5.7%
- IC50 (OM-1): 1.47 µg/mL (≈ 11.3 µM)
- viability at 6 µg/mL (OM-1; OM-1, 6 μg/ml, read-out: % survival tumor): 20.1%
- IC50 (HS578T [2]): < 0.6 µg/mL
- IC50 (MCF-7; MCF7): < 0.6 µg/mL
- viability at 6 µg/mL (MCF-7; MCF7, MCF-7, 6 μg/ml, read-out: % survival tumor): 4.2%
- viability at 6 µg/mL (HS578T [3]): 12.5%
- side effects [4]: GI side effects like nausea, vomiting and diarrhea, leukopenia, thrombocytopenia, alopecia

SMILES: Nc1ccn([C@H]2OC[C@H](O)[C@H](O)[C@@H]2O)c(=O)n1 [(8), β-L-ribopyranosylcytosine]
- viability [1]: 93.1%
- viability at 10 µg/mL (OM-1; read-out: % survival tumor): 78.9%
- IC50 (OM-1; [7]): > 10 µg/mL
- viability at 10 µg/mL (HS578T [2]; HS578T): 89.2%
- IC50 (HS578T [2]; [8]): > 10 µg/mL
- viability at 10 µg/mL (MCF-7; read-out: % survival tumor): 72.2%
- IC50 (MCF-7; [9]): > 10 µg/mL

SMILES: O=c1[nH]c(=O)n([C@@H]2OC[C@H](O)[C@H](O)[C@@H]2O)cc1F [(18), α-L-ribopyranosyl-5-fluorouracil]
- viability [1]: 166%
- viability at 10 µg/mL (SKLU; [10]): 78.4%
- IC50 (SKLU; [11]): 57.1 µg/mL (≈ 218 µM)
- viability at 10 µg/mL (HT-29; read-out: % survival tumor): 83.1%
- IC50 (HT-29; [5]): 119 µg/mL (≈ 454 µM)
- viability at 10 µg/mL (OM-1; read-out: % survival tumor): 82.5%
- IC50 (OM-1; [7]): 65.1 µg/mL (≈ 248 µM)
- viability at 10 µg/mL (HS578T [2]; HS578T): 83.6%
- IC50 (HS578T [2]; [8]): 50.8 µg/mL (≈ 194 µM)

SMILES: Nc1ncnc2c1ncn2[C@H]1OC[C@H](O)[C@H](O)[C@@H]1O [(11)]
- viability [1]: 94.1%
- viability at 10 µg/mL (OM-1; read-out: % survival tumor): 41.6%
- IC50 (OM-1; [7]): 8.3 µg/mL (≈ 31.1 µM)
- viability at 10 µg/mL (HS578T [2]; HS578T): 43.6%
- IC50 (HS578T [2]; [8]): 7.8 µg/mL (≈ 29.2 µM)

SMILES: O=c1ccn([C@H]2OC[C@H](O)[C@H](O)[C@@H]2O)c(=O)[nH]1 [(3), β-L-ribopyranosyluracil]
- viability [1]: 96%
- viability at 10 µg/mL (HS578T [2]; HS578T): 86.7%
- IC50 (HS578T [2]; [8]): > 10 µg/mL

SMILES: O=c1[nH]c(=O)n([C@H]2OC[C@H](O)[C@H](O)[C@@H]2O)cc1F [(5), β-L-ribopyranosyl-5-fluorouracil]
- viability [1]: 116%
- viability at 10 µg/mL (SKMES; SKMES, 10 μg/ml, read-out: % survival tumor): 68.2%
- IC50 (SKMES; SKMES, continuous exposure, read-out: IC 50): > 10 µg/mL
- viability at 10 µg/mL (SKLU; [10]): 90.1%
- IC50 (SKLU; [11]): > 10 µg/mL
- viability at 10 µg/mL (MCF-7; read-out: % survival tumor): 76.2%
- IC50 (MCF-7; [9]): > 10 µg/mL
